Measured values published in patent publication US5578725A, “Delta opioid receptor antagonists” (priority 1995, dated 1996).
Several values for one entry are separate records, joined by “and”; a condition that tells them apart may be missing. Equal values may be shown once. Entries after “also recorded” stand apart in the source; their conditions may differ. Where a name gives a salt, the structure may show the parent alone. Read-outs that look alike come from different tables or passages of the source.

How the values were obtained:
δ opioid receptors = δ opioid receptors (Mus musculus, UniProt P32300); assay: Antagonism of DADLE (δ) in electrically stimulated mouse vas deferens (MVD) preparation; conditions: for Kb: Ke (nM); for IC50 ratio DADLE(δ): 15 min preincubation
δ2 [1] = assay: biochemical; assay type: binding, guinea pig; conditions: DSLET vs DPDPE
Method: (§1) The opioid receptor affinities of the target compounds were determined on guinea pig membranes employing a modification of the method of Werling et al., J. Pharmacol. Exp. Ther., 233, 722 (1986).

δ1 [2] = target: T1, δ1 (Cavia porcellus, UniProt A0A286XTF2); assay: biochemical; assay type: binding, guinea pig
T1 construct: Guinea Pig Brain Membranes; from tissue; host or cells: guinea pig brain membranes
Method: as §1

δ1 [3] = assay: biochemical; assay type: binding, guinea pig; conditions: for preference between δ1 and δ2 putative binding sites (in words): [3H]DPDPE vs [3H]DSLET
Method: as §1

δ2 [4] = target: T2, δ2 (Cavia porcellus, UniProt A0A286XTF2); assay: biochemical; assay type: binding, guinea pig
T2 construct: Guinea Pig Brain Membranes; from tissue; host or cells: guinea pig brain membranes
Method: as §1

κ opioid receptor = κ opioid receptor (Cavia porcellus, UniProt P41144); conditions: GPI, ethylketazocine, antagonist 100 nM
μ opioid receptor = μ opioid receptor (Cavia porcellus, UniProt A0ACM8Q262); conditions: GPI, morphine, antagonist 100 nM
μ = target: T3, μ (Mus musculus, UniProt P42866); assay: Tail-flick assay, antagonism of morphine (μ) antinociception; assay type: in vivo, male Swiss-Webster mice; conditions: ED50 with antagonist/control ED50; morphine s.c.; antagonist 20 pmol/kg i.c.v.
T3 construct: male Swiss-Webster mice; from tissue; host or cells: living mouse (male Swiss-Webster)

δ2 [5] = target: T4, δ2 (Mus musculus, UniProt P32300); assay: Tail-flick assay, antagonism of DSLET (δ2) antinociception; assay type: in vivo, male Swiss-Webster mice; conditions: ED50 with antagonist/control ED50; DSLET i.c.v.; antagonist 20 pmol/kg i.c.v.
T4 construct: male Swiss-Webster mice; from tissue; host or cells: living mouse (male Swiss-Webster)

κ [6] = target: T5, κ (Mus musculus, UniProt P33534); assay type: in vivo, male Swiss-Webster mice; conditions: mouse, in vivo
T5 construct: male Swiss-Webster mice; from tissue; host or cells: living mouse (male Swiss-Webster)

δ1 [7] = target: δ1 (Mus musculus, UniProt P32300); conditions: for ED50 Ratio (95% C.L.): ED50 with antagonist/control ED50, DPDPE i.c.v.
κ [8] = target: T6, κ (Cavia porcellus, UniProt P41144); assay: Binding to κ sites, competition with [3H]U69593, guinea pig brain membranes; conditions: geometric mean of three replicates
T6 construct: Guinea Pig Brain Membranes; from tissue; host or cells: guinea pig brain membranes
Method: as §1

[9] = MVD, DADLE, Ke = [antagonist]/(IC50 ratio - 1), antagonist 100 nM
[10] = MVD DADLE IC50 ratio / GPI EK IC50 ratio
[11] = MVD DADLE IC50 ratio / GPI morphine IC50 ratio
[12] = using calculated IC50 ratio (238) based on 100 nM of 7

SMILES	Kb (δ opioid receptors; [9])	IC50 Selectivity Ratio δ/κ (δ opioid receptors; [10])	IC50 Selectivity Ratio δ/μ (δ opioid receptors; [11])	IC50 ratio DADLE(δ) (δ opioid receptors; MVD, antagonist 100 nM)	Ki (δ1 [2])	Ki Selectivity Ratio δ1/δ2 (δ1 [3])	Ki Selectivity Ratio κ/δ1 (δ1 [3])	Ki Selectivity Ratio μ/δ1 (δ1 [3])	Ki (δ2 [4])	IC50 ratio EK (κ) (κ opioid receptor)	IC50 ratio M(μ) (μ opioid receptor)	preference between δ1 and δ2 putative binding sites (in words) (δ1 [3]; hydrochloride)	further results
NCCC[C@H](NC(=O)c1cccc2c3c([nH]c12)[C@@H]1Oc2c(O)ccc4c2[C@@]12CCN(CC1CC1)[C@H](C4)[C@]2(O)C3)C(=O)O [Compound 4, 7'-(Carboxamido L-ornithine)-17-(cyclopropylmethyl)-6,7-dehydro-3,14-dihydroxy-4,5α-epoxy-6,7,2',3'-indolomorphinan hydrochloride]	1.8 nM and 1 to 5 nM	63	20	58 ± 15	0.18 nM	11.3	320	756	0.015 nM	0.9 ± 0.0	3.0 ± 1		factor by which compound competed more effectively with [3H]DSLET than with [3H]DPDPE for δ sites (δ2 [1]): 8-10; preference between δ1 and δ2 putative binding sites (in words) (δ1 [3]): greater affinity for δ2 relative to δ1 putative binding sites
O=C(O)C[C@H](NC(=O)c1cccc2c3c([nH]c12)[C@@H]1Oc2c(O)ccc4c2[C@@]12CCN(CC1CC1)[C@H](C4)[C@]2(O)C3)C(=O)O [Compound 3, 7'-(Carboxamido-L-aspartate)-17-(cyclopropylmethyl)-6,7-dehydro-3,14-dihydroxy-4,5α-epoxy-6,7,2',3'-indolomorphinan hydrochloride]	1.1 nM and 1 to 5 nM	43	67	89 ± 20	0.14 nM	0.3	6246	2574	0.41 nM	2.1 ± 0.6	1.3 ± 0.5	modest preference for [^3 H]DPDPE sites; also recorded: modest preference for δ1 over δ2 sites	ED50 Ratio (95% C.L.) (μ): 1.0 (0.7-1.5); ED50 Ratio (95% C.L.) (δ2 [5]): 0.5 (0.3-1.1); ED50 Ratio (95% C.L.) (κ [6]): 0.7 (0.4-1.2); ED50 Ratio (95% C.L.) (δ1 [7]; antagonist 0.8 μmol/kg i.v.): 2.3 (1.7-3.1); ED50 Ratio (95% C.L.) (δ1 [7]; antagonist 20 omol/kg (i.c.v.) as printed): 2.6 (2.0-3.6); antagonist potency, central vs peripheral delivery (in words) (δ1 [7]; central (i.c.v.) vs peripheral (i.v.)): highly potent δ opioid antagonists when administered centrally, and many orders of magnitude less potent when delivered by the peripheral route; Dose required to double the ED50 of DPDPE, i.c.v. (δ1 [7]; i.c.v., antagonist dose/(ED50 ratio - 1)): 12.5 pmol/kg; antagonism of DPDPE antinociception (in words) (δ1 [7]; i.v. or i.c.v., mice): selectively antagonized DPDPE; Dose required to double the ED50 of DPDPE, i.v. (δ1 [7]; i.v., antagonist dose/(ED50 ratio - 1)): 0.62 µmol/kg; in vivo δ subtype selectivity (in words) (δ1 [7]; mouse, in vivo): antagonized the δ1 agonist, DPDPE, but not the δ2 agonist, DSLET; Ratio (i.v./i.c.v.) of doses required to produce equivalent antagonism of DPDPE-induced antinociception (δ1 [7]; mouse, in vivo, hydrochloride): 49,600 and > 49,000; i.v./i.c.v. dose ratio relative to that of NTI (times greater) (δ1 [7]; relative to NTI): 7
N=C(N)NCCC[C@H](NC(=O)c1cccc2c3c([nH]c12)[C@@H]1Oc2c(O)ccc4c2[C@@]12CCN(CC1CC1)[C@H](C4)[C@]2(O)C3)C(=O)O [Compound 5, 7'-(Carboxamido-L-arginine)-17-(cyclopropylmethyl)-6,7-dehydro-3,14-dihydroxy-4,5α-epoxy-6,7,2',3'-indolomorphinan hydrochloride]	3.3 nM and 1 to 5 nM	27	24	31 ± 5	0.16 nM	1.9	1181	2096	0.083 nM	1.2 ± 0.5	1.3 ± 0.6		
O=C(O)c1cccc2c3c([nH]c12)[C@@H]1Oc2c(O)ccc4c2[C@@]12CCN(CC1CC1)[C@H](C4)[C@]2(O)C3 [Compound 7, 7'-Carboxy-17-(cyclopropylmethyl)-6,7-dehydro-3,14-dihydroxy-4,5α-epoxy-6,7,2',3'-indolomorphinan hydrochloride]					0.013 nM	0.8	3246	1846	0.016 nM	1.0 ± 0.2	2.0 ± 0.3		Ki (κ [8]): 42 nM; δ opioid receptor antagonist potency (in words) (δ opioid receptors): δ antagonist potency approaching that of NTI; Kb (δ opioid receptors; MVD, DADLE, concentration of 7 was 10 nM): 0.4 nM; calculated IC50 ratio based on 100 nM of 7 (δ opioid receptors; MVD, DADLE, calculated for 100 nM): 238; IC50 Selectivity Ratio δ/κ (δ opioid receptors; [12]): 231; IC50 Selectivity Ratio δ/μ (δ opioid receptors; [12]): 122; affinity for δ1 sites relative to NTI (times greater) (δ1 [2]; relative to NTI): 6 times; affinity for δ sites (in words) (δ1 [2]; δ1 and δ2 sites, guinea pig membranes): high affinity for δ sites
NCCCC[C@H](NC(=O)c1cccc2c3c([nH]c12)[C@@H]1Oc2c(O)ccc4c2[C@@]12CCN(CC1CC1)[C@H](C4)[C@]2(O)C3)C(=O)O [Compound 6, 7'-(N(α)-Carboxamido-L-lysine)-17-(cyclopropylmethyl)-6,7-dehydro-3,14dihydroxy-4,5α-epoxy-6,7,2',3'-indolomorphinan hydrochloride]	5.2 nM and 1 to 5 nM	20	20	20 ± 4	0.3 nM	0.4	134	719	0.75 nM	1.1 ± 0.0	1.0 ± 0.4	modest preference for [^3 H]DPDPE sites; also recorded: modest preference for δ1 over δ2 sites	
